According to patent publication US20140221480A1, “METHODS OF MANAGING BRAIN INFLAMMATION” (EMORY UNIVERSITY, priority 2013, published 2014):
“Also recorded” adds a separate entry of the source. Where two headings read alike, the source gives them in different places.

What was measured:
Assay type in all cases: in vivo, mice (C57BL/6J)
[1] = Concentration of TAK-242 in plasma and brain tissue after i.p. injection (LC-MS/MS); conditions: for concentration at 3 h / concentration at 8 h / concentration at 24 h: male, C57BL/6J, mouse, ip, 3 mg/kg body weight; for concentration at 3 h: 3 hrs after i.p. injection; for concentration at 8 h: 8 hrs after i.p. injection; for concentration at 24 h: 24 hrs after i.p. injection
Source text: (§1) Animals—Fifty male mice (C57BL/6J, body weight 25˜30 g) were obtained from Jackson Laboratory and maintained in the Division of Laboratory Animal Resources at Emory University”. The experiments outlined in this manuscript conform to the Guide for the Care and Use of Laboratory Animals published by the National Institutes of Health. The animal care and experimental protocols were approved by the Emory University Committee on Animal Care. Animals were randomly assigned to four groups: sham control (S, n=4, for molecular analysis), focal cerebral ischemia/reperfusion (I/R, n=16; 5 for molecular analysis), Sham+TAK-242 (S-T, n=4, for molecular analysis), and I/R+TAK-242 (I/R-T, n=16; 5 for molecular analysis). Ten mice were used for the measurement of TAK-242 concentration in plasma and brain tissue.
(§2) Focal cerebral ischemia/reperfusion—Focal cerebral FR was induced by occlusion of the middle cerebral artery (MCAO) on the left side. Mice were subjected to anesthesia by 5.0% isoflurane and maintained by inhalation of 1.5% to 2% isoflurane driven by 100% oxygen flow. Mice were ventilated (110 breaths/min with volume 0.5 ml) and body temperature was regulated at 37.0° C. Heart rate and PO2 were monitored during surgery. Following the skin incision, the left common carotid artery (CCA), the external carotid artery (ECA), and the internal carotid artery (ICA) were carefully exposed. Microvascular aneurysm clips were applied to the left CCA and the ICA. A coated 6-0 filament (6023PK, Doccol Corp. CA, USA) was introduced into an arteriotomy hole, fed distally into the ICA and advanced 11 mm from the carotid bifurcation. The ICA clamp was removed and focal cerebral ischemia started. After ischemia for 60 min, the filament and the CCA clamp were gently removed (reperfusion starts). The collar suture at the base of the ECA stump was tightened. The skin was closed, anesthesia discontinued, and the animal allowed to recover in a pre-warmed cage. Control mice underwent a neck dissection and coagulation of the external carotid artery, but no occlusion of the MCA. Ischemia and reperfusion were confirmed by rCBF.
(§3) TAK-242 treatment—TAK-242 was dissolved in DMSO and then diluted in sterile endotoxin-free water and injected intraperitoneally (i.p., 3 mg/kg body weight) 1 hr after MCAO or sham surgical operation.
Measurement of TAK242 concentration in plasma and brain tissue—Three, 8 or 24 hours after the injection of TAK242, the mice were anesthetized with 5.0% isoflurane driven by 100% oxygen flow. Blood (0.95 ml) was drawn from the left ventricle and immediately mixed with 0.05 mL sodium citrate (CCS). The samples were incubated at room temperature for 30 min and centrifuged at 8000 rpm. The plasma was collected and stored at −80° C. for future use Immediately after the blood was drawn, the mice were perfused with ice-cold normal saline via the ascending aorta until the perfusion buffer was clear from the right atrium. The brains were removed and weighed. Brain tissues were homogenized with buffer, and centrifuged at 14000 rpm for 10 min. Supernatants were collected and stored at −80° C. The concentrations of TAK-242 were detected by Intertek (USA) using Liquid Chromatography with Tandem Mass Spectrometry Detection (LC-MS/MS). Briefly, TAK-242 and internal standard (Bromfenac) were extracted from 50 μL of mouse plasma or brain homogenate by liquid-liquid extraction using methyltertiary-butyl ether (MTBE). After evaporation to dryness and reconstitution, the extracts were analyzed by LC-MS/MS. Run times were approximately 5 min. The Lower Limit of Quantitation (LLOQ) for TAK-242 is 0.5 ng/ml for plasma and 2 ng/g for brain homogenate.

[2] = tested on: mice subjected to acute cerebral I/R; experiment: Evaluation of neurological score after focal cerebral ischemia/reperfusion (MCAO); conditions: 24 hrs after cerebral I/R; 3 mg/kg i.p. 1 hr after ischemia; scale 0 to 15, 15 perfect; control group 4.38
Source text: as §1
Focal cerebral ischemia/reperfusion—Focal cerebral FR was induced by occlusion of the middle cerebral artery (MCAO) on the left side. Mice were subjected to anesthesia by 5.0% isoflurane and maintained by inhalation of 1.5% to 2% isoflurane driven by 100% oxygen flow. Mice were ventilated (110 breaths/min with volume 0.5 ml) and body temperature was regulated at 37.0° C. Heart rate and PO2 were monitored during surgery. […]
Evaluation of neurological score—Mice were scored by a blinded investigator. […]

[3] = tested on: mice subjected to acute cerebral I/R; experiment: Assessment of cerebral infarct size by TTC staining after focal cerebral ischemia/reperfusion (MCAO); conditions: 24 hrs after cerebral I/R, 3 mg/kg i.p. 1 hr after ischemia
Source text: Animals—Fifty male mice (C57BL/6J, body weight 25˜30 g) were obtained from Jackson Laboratory and maintained in the Division of Laboratory Animal Resources at Emory University”. The experiments outlined in this manuscript conform to the Guide for the Care and Use of Laboratory Animals published by the National Institutes of Health. The animal care and experimental protocols were approved by the Emory University Committee on Animal Care. […]
Focal cerebral ischemia/reperfusion—Focal cerebral FR was induced by occlusion of the middle cerebral artery (MCAO) on the left side. […] Heart rate and PO2 were monitored during surgery. […]
Assessment of cerebral infarct size—Twenty-four hours after FR, mice were sacrificed and perfused with ice-cold phosphate buffered saline (PBS) via the ascending aorta. […] The infarct areas were traced and quantified with ImageJ analysis system. […] The area of infarction and the area of both hemispheres were calculated for each brain slice. An edema index was calculated by dividing the total volume of the left hemisphere by the total volume of the right hemisphere. The actual infarct volume adjusted for edema was calculated by dividing the infarct volume by the edema index. Infarct volumes are expressed as percentage of the total brain volume±S.E.M.

[4] = tested on: inflammatory cytokines in ischemic brain; experiment: Antibody array of inflammatory cytokines in ischemic brain tissue; conditions: 6 hrs after cerebral I/R; 3 mg/kg i.p.; vs untreated controls, p<0.05
Source text: as §1, §2, §3
Antibody array—Proteins were prepared from ischemic cerebral hemispheres. Forty inflammatory cytokines were analyzed by antibody arrays (RayBio® Cytokine Antibody Arrays—Mouse Inflammation Antibody Array G Series I). Briefly, the glass chips were air-dried for 60 min and assembled into an incubation chamber and incubation frame. […] The signal data was collected and analyzed by software from RayBiotech, Inc. (Atlanta, Ga., USA). […]

[5] = hemisphere contralateral to ischemia, brain tissue, read-out: concentration of TAK-242 in hemisphere contralateral to ischemia
[6] = ischemic (ipsilateral) hemisphere, brain tissue, read-out: concentration of TAK-242 in ischemic (ipsilateral) hemisphere
[7] = plasma, mice with tMCAO, read-out: concentration of TAK-242 in plasma

CCOC(=O)C1=CCCC[C@H]1S(=O)(=O)Nc1ccc(F)cc1Cl [TAK-242, ethyl (6R)-6-[N-(2-chloro-4-fluorophenyl)sulfamoyl]cyclohex-1-ene-1-carboxylate]
ability to pass through the blood brain barrier (BBB) ([1]; 3 mg/kg i.p., mice): passes the blood-brain barrier; also recorded: can pass through the BBB
concentration in ischemic hemisphere compared with contralateral hemisphere ([1]; 3 mg/kg i.p., p<0.05): significantly higher
concentration at 3 h [1, 5]: 14.2 ng/mL
concentration at 8 h [1, 5]: 15.1 ng/mL
concentration at 24 h [1, 5]: 17.5 ng/mL
concentration at 3 h [1, 6]: 26.1 ng/mL
concentration at 8 h [1, 6]: 26.4 ng/mL
concentration at 24 h [1, 6]: 25 ng/mL
concentration at 3 h [1, 7]: 52 ng/mL
concentration at 8 h [1, 7]: 54.1 ng/mL
concentration at 24 h [1, 7]: 22.6 ng/mL
neurological score [2]: 6.73
brain infarct size ([3]; control group 21.3%): 12.5%
reduction of brain infarct size compared to control mice ([3]; p<0.05): 41%
level of MCP-1 in brain tissue [4]: significantly reduced
level of MIP-1γ in brain tissue [4]: significantly reduced
level of TIMP-1 in brain tissue [4]: significantly reduced
level of sTNF RII in brain tissue [4]: significantly reduced
